Patent US20210395239A1 (Hoffmann-La Roche Inc., priority 2018, published 2021)
Where two headings read alike, the source gives them in different places.

What was measured:
hERG channel = target: T1, hERG channel (Homo sapiens, UniProt Q12809); experiment: hERG channel inhibition assay (patch-clamp, CHOhERG cells); type: cell-based; settings: for safety window (hERG IC20/TLR7/8/9 IC50) compared to the compounds of this invention: result in words; for hERG IC20/TLR7 IC50 / hERG IC20/TLR9 IC50 / hERG IC20/TLR8 IC50: safety ratio
T1 construct: expressed in transfected cells; host or cells: CHO (Chinese hamster ovary)
Method: hERG Channel Inhibition Assay:
The hERG K^+ channels were cloned in humans and stably expressed in a CHO (Chinese hamster ovary) cell line. CHOhERG cells were used for patch-clamp (voltage-clamp, whole-cell) experiments. Cells were stimulated by a voltage pattern to activate hERG channels and conduct IKhERG currents (rapid delayed outward rectifier potassium current of the hERG channel). After the cells were stabilized for a few minutes, the amplitude and kinetics of IKhERG were recorded at a stimulation frequency of 0.1 Hz, (6 bpm). Thereafter, the test compound was added to the preparation at increasing concentrations. For each concentration, an attempt was made to reach a steady-state effect, usually, this was achieved within 3-10 min at which time the next highest concentration was applied. The amplitude and kinetics of IKhERG are recorded in each concentration of the drug which were compared to the control values (taken as 100%). (references: Redfern W S, Carlsson L, Davis A S, Lynch W G, MacKenzie I, Palethorpe S, Siegl P K, Strang I, Sullivan A T, Wallis R, Camm A J, Hammond T G. 2003; Relationships between preclinical cardiac electrophysiology, clinical QT interval prolongation and torsade de pointes for a broad range of drugs: evidence for a provisional safety margin in drug development. Cardiovasc. Res. 58:32-45, Sanguinetti M C, Tristani-Firouzi M. 2006; hERG potassium channels and cardiac arrhythmia. Nature 440:463-469, Webster R, Leishman D, Walker D. 2002; Towards a drug concentration effect relationship for QT prolongation and torsades de pointes. Curr. Opin. Drug Discov. Devel. 5:116-26).

hTLR9 [1] = target: T2, hTLR9 (Homo sapiens, UniProt Q9NR96); parameters: host or cells: HEK; settings: data disclosed in US20150105370; read-out: HEK/hTLR9 IC50; cited from earlier work
T2 sequence (Q9NR96 26-1032): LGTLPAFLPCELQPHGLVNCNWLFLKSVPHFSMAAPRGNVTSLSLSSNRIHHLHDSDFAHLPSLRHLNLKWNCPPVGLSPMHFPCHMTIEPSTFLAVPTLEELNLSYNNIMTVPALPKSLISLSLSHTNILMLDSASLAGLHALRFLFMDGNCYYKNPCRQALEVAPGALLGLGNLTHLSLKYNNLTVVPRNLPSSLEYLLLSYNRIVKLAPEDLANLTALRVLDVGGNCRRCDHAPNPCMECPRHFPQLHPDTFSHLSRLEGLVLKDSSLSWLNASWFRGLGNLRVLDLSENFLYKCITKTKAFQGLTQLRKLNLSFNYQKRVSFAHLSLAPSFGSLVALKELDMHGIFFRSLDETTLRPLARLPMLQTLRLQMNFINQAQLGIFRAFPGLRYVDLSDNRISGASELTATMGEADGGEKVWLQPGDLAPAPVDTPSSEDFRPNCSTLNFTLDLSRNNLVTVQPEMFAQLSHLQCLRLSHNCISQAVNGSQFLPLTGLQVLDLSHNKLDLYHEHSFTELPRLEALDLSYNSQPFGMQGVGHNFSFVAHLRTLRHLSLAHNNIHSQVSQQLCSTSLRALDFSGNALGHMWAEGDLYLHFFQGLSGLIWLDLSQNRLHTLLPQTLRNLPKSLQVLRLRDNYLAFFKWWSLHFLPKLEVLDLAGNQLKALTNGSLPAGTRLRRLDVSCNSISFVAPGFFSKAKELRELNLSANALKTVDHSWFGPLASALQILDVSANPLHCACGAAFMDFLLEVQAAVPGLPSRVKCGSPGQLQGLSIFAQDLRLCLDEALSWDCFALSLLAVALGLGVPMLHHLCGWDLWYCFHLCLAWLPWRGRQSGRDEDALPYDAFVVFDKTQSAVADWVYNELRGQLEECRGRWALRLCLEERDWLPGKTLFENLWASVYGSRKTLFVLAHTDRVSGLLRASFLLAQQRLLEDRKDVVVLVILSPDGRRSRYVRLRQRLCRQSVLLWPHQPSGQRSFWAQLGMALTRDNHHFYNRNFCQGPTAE

human TLR7 = target: T3, human TLR7 (Homo sapiens, UniProt Q9NYK1); experiment: HEK293-Blue-hTLR-7 cells assay (SEAP reporter, R848 stimulation); type: cell-based; settings: HEK293-Blue-hTLR7 cells, R848, 20 hrs; read-out: HEK/hTLR7 IC50
T3 construct: host or cells: HEK293 (HEK-Blue hTLR7)
T3 sequence (Q9NYK1 27-1049): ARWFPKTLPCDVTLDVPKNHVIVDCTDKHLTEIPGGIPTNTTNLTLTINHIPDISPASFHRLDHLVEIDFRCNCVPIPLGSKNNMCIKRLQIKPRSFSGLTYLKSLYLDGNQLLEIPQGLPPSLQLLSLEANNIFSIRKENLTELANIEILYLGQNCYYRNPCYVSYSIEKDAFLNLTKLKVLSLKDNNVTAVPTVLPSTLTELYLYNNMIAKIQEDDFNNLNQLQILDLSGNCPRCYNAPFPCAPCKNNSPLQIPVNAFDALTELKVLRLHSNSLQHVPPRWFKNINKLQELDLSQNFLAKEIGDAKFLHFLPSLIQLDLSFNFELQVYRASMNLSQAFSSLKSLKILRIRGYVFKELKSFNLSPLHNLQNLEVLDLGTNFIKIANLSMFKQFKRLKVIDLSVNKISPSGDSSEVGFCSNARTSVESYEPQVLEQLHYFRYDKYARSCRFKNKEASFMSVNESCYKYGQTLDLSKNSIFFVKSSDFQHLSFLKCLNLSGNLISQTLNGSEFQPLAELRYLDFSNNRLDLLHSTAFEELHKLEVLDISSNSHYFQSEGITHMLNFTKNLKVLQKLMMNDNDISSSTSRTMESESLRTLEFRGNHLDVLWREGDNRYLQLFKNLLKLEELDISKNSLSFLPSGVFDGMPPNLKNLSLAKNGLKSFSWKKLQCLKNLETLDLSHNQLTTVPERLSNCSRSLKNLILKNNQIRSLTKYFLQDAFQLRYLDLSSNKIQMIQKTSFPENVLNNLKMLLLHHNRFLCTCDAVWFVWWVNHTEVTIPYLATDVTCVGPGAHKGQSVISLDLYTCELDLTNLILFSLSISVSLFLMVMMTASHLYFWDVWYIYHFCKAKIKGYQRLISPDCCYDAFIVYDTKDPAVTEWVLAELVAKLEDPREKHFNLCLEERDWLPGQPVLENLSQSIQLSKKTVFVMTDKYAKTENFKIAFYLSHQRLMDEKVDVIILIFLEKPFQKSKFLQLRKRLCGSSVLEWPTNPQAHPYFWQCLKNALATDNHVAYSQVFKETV
Description: HEK293-Blue-hTLR-7 Cells Assay:
(§1) A stable HEK293-Blue-hTLR-7 cell line was purchased from InvivoGen (Cat. #: hkb-ht1r7, San Diego, Calif., USA). These cells were originally designed for studying the stimulation of human TLR7 by monitoring the activation of NF-κB. A SEAP (secreted embryonic alkaline phosphatase) reporter gene was placed under the control of the IFN-β minimal promoter fused to five NF-κB and AP-1-binding sites. The SEAP was induced by activating NF-κB and AP-1 via stimulating HEK-Blue hTLR7 cells with TLR7 ligands. Therefore the reporter expression was declined by TLR7 antagonist under the stimulation of a ligand, such as R848 (Resiquimod), for incubation of 20 hrs. The cell culture supernatant SEAP reporter activity was determined using QUANTI-Blue™ kit (Cat. #: rep-qb1, Invivogen, San Diego, Ca, USA) at a wavelength of 640 nm, a detection medium that turns purple or blue in the presence of alkaline phosphatase.
HEK293-Blue-hTLR7 cells were incubated at a density of […] cells/mL in a volume of 170 μL in a 96-well plate in Dulbecco's Modified Eagle's medium (DMEM) containing 4.5 g/L glucose, 50 U/mL penicillin, […], […], 2 mM L-glutamine, 10% (v/v) heat-inactivated fetal bovine serum with addition of 20 μL test compound in a serial dilution in the presence of final DMSO at 1% and 10 μL of 20 uM R848 in above DMEM, perform incubation under 37° C. in a CO2 incubator for 20 hrs. Then 20 μL of the supernatant from each well was incubated with 180 μL Quanti-blue substrate solution at 37° C. for 2 hrs and the absorbance was read at 620˜655 nm using a spectrophotometer. The signaling pathway that TLR7 activation leads to downstream NF-κB activation has been widely accepted, and therefore similar reporter assay was modified for evaluating TLR7 antagonist.

hTLR9 [2] = target: T2, hTLR9; experiment: HEK293-Blue-hTLR-9 cells assay (SEAP reporter, ODN2006 stimulation); type: cell-based; parameters: host or cells: HEK293 (HEK-Blue hTLR9); settings: HEK293-Blue-hTLR9 cells, ODN2006, 20 hrs; read-out: HEK/hTLR9 IC50
Description: HEK293-Blue-hTLR-9 Cells Assay:
as §1, with “HEK293-Blue-hTLR-9” for “HEK293-Blue-hTLR-7”, “hkb-htlr9,” for “hkb-ht1r7,”, “TLR9” for “TLR7”, “hTLR9” for “hTLR7”, “ODN2006 (Cat. #: tlrl-2006-1, Invivogen, San Diego, Calif., USA),” for “R848 (Resiquimod),”, “Calif.,” for “Ca,”
HEK293-Blue-hTLR9 cells were incubated at a density of 250,000˜450,000 cells/mL in a volume of 170 μL in a 96-well plate in Dulbecco's Modified Eagle's medium (DMEM) containing 4.5 g/L glucose, 50 U/mL penicillin, […], 2 mM L-glutamine, 10% (v/v) heat-inactivated fetal bovine serum with addition of 20 μL test compound in a serial dilution in the presence of final DMSO at 1% and 10 μL of 20 uM ODN2006 in above DMEM, perform incubation under 37° C. in a CO2 incubator for 20 hrs. Then 20 μL of the supernatant from each well was incubated with 180 μL Quanti-blue substrate solution at 37° C. for 2 h and the absorbance was read at 620-655 nm using a spectrophotometer. The signaling pathway that TLR9 activation leads to downstream NF-κB activation has been widely accepted, and therefore similar reporter assay was modified for evaluating TLR9 antagonist.

T1 sequence (Q12809 whole entry): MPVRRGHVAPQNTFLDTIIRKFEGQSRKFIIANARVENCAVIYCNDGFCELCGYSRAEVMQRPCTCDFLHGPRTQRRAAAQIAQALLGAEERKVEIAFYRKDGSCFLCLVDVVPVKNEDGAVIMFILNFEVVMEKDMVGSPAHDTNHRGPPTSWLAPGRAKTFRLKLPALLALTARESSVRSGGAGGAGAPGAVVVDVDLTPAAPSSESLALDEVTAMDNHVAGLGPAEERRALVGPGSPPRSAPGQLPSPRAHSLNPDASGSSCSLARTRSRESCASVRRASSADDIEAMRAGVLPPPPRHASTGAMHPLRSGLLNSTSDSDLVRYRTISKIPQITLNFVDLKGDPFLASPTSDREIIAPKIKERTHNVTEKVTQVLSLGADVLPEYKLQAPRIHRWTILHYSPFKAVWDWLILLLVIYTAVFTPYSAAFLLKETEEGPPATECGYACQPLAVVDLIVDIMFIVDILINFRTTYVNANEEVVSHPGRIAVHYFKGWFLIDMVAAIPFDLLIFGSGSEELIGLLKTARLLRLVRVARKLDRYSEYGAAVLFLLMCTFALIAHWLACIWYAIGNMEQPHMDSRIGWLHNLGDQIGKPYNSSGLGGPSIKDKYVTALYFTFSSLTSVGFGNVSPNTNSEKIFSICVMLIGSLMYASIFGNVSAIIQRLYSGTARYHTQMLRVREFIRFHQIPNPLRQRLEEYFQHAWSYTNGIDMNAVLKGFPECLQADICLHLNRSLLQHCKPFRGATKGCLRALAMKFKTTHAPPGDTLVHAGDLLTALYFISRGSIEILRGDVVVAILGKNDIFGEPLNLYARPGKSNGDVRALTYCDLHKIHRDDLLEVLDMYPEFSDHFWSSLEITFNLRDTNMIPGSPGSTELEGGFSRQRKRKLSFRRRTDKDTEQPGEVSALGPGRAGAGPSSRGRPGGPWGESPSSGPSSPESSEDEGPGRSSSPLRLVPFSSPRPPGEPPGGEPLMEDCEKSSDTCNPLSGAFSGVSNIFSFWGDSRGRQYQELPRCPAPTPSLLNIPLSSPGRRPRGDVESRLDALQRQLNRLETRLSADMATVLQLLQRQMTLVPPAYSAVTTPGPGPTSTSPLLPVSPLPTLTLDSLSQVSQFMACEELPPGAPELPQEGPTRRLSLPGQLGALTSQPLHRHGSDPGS

IC50 (human TLR7) [nM]	IC50 (hTLR9 [2]) [nM]	SMILES	safety window (hERG IC20/TLR7/8/9 IC50) compared to the compounds of this invention (hERG channel)	hERG IC20/TLR7 IC50 (hERG channel)	hERG IC20/TLR9 IC50 (hERG channel)	IC50 (hTLR9 [1]) [nM]	hERG IC20/TLR8 IC50 (hERG channel)
–	–	C[C@@H]1CN(c2ccc(C#N)c3ncccc23)C[C@H](CN2CCN(c3ccccc3)CC2)O1 [ER-887258, reference compound]	much narrower safety window	8.1	0.3	> 2000	–
–	–	C[C@@H]1CN(c2ccc(C#N)c3ncccc23)C[C@H](CN2CCN(c3ccccn3)CC2)O1 [ER-888285, reference compound]	much narrower safety window	8.4	0.5	> 2000	–
–	–	C[C@@H]1CN(c2ccc(C#N)c3ncccc23)C[C@H](CN2CC(NS(=O)(=O)c3ccc(F)cc3)C2)O1 [ER-894155]	–	–	–	> 10000	–
–	–	Cc1nn(C)cc1S(=O)(=O)NC1CCN(C[C@H]2CN(c3ccc(C#N)c4ncccc34)C[C@@H](C)O2)CC1 [ER-894160]	–	–	–	> 10000	–
–	–	C[C@@H]1CN(c2ccc(C#N)c3ncccc23)C[C@H](CN2CC[C@@H](NC(=O)c3ccccc3)C2)O1 [ER-894544]	–	–	–	> 6200	–
13	69	[2H]c1nc2c(C#N)ccc(N3C[C@H](CN4CCN(c5nc(C)cc(N6C[C@H](OC)[C@@H](N)C6)n5)CC4)O[C@H](C)C3)c2nc1[2H] [Example 105, 8-[(2S,6R)-2-[[4-[4-[(3S,4S)-3-amino-4-methoxy-pyrrolidin-1-yl]-6-methyl-pyrimidin-2-yl]piperazin-1-yl]methyl]-6-methyl-morpholin-4-yl]-2,3-dideuterio-quinoxaline-5-carbonitrile]	–	–	–	–	–
–	–	COc1ccc(N2CCN(C[C@H]3CN(c4ccc(C#N)c5ncccc45)C[C@@H](C)O3)CC2)cc1 [Example R1, 5-[(2S,6R)-2-[[4-(4-methoxyphenyl)piperazin-1-yl]methyl]-6-methyl-morpholin-4-yl]quinoline-8-carbonitrile, reference compound]	much narrower safety window	9.3	0.1	–	6.2
–	–	C[C@@H]1CN(c2ccc(C#N)c3ncccc23)C[C@H](CN2CCN(c3ccc(Cl)cc3)CC2)O1 [Example R2, 5-[(2S,6R)-2-[[4-(4-chlorophenyl)piperazin-1-yl]methyl]-6-methyl-morpholin-4-yl]quinoline-8-carbonitrile, reference compound]	much narrower safety window	1.3	0.04	–	0.8
